Assay type in all cases: biochemical
One assay addresses T1, Lck (Homo sapiens, UniProt P06239).
T1 construct: purchased Carna Bioscience 08-170
Kind of assay: Lck kinase selectivity assay (Example 142 procedure, Table 3 modifications). To be noted: ATP 5 μM. The method, then:
(§1) The purpose of the Tec in vitro assay is to determine compound potency against Tec through the measurement of IC50. Compound inhibition is measured after monitoring the amount of phosphorylation of a fluorescein-labeled polyGT peptide (Invitrogen PV3610) in the presence of active Tec enzyme (Carna Biosciences 08-182), ATP, and inhibitor. The Tec kinase reaction was done in a black 96 well plate (costar 3694). For a typical assay, a 29 μL aliquot of a ATP/peptide master mix (final concentration; ATP 25 μM, polyGT 100 nM) in kinase buffer (10 mM Tris-HCl pH 7.5, 10 mM MgCl2, 200 μM Na3PO4, 5 mM DTT, 0.01% Triton X-100, and 0.2 mg/ml casein) is added to each well. Next, 1 μL of a 3-fold, 50× compound titration in 100% DMSO solvent is added, followed by adding 20 uL of Tec enzyme mix in 1× kinase buffer (with a final concentration of 0.125 nM). The assay is incubated for 15 minutes before being stopped with 5 μl, of a 220 mM EDTA solution. Aliquots (5 μL) of the kinase reaction are transferred to a low volume white 384 well plate (Corning 3674), and 5 μL of a 2× detection buffer (Invitrogen PV3574, with 2 nM Tb-PY20 antibody, Invitrogen PV3552) is added. The plate is covered and incubated for 45 minutes at room temperature. Time resolved fluorescence (TRF) on Molecular Devices M5 (332 nm excitation; 488 nm emission; 518 nm fluorescein emission) is measured.
(§2) Using the procedure described in Example 142, with the modifications shown in Table 3, selectivity for Itk, Txk, and Lck was measured.

The next assay concerns the target T2, BTK (Homo sapiens, UniProt Q06187).
T2 construct: purchased Upstate 14-552
Nature of the assay: In vitro BTK kinase assay (BTK-POLYGAT-LS). To be noted: IC50 (10 uM ATP). The method, boiled down:
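Poly-GAT peptide at 100 nM with 10 μM ATP (final) in pH 7.5 Tris buffer containing MgCl2, DTT, Triton X-100 and 0.2 mg/ml casein.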

The next assay deals with T3, Txk (Homo sapiens, UniProt P42681).
T3 construct: purchased Carna Bioscience 08-183
T3 sequence (P42681 1-527): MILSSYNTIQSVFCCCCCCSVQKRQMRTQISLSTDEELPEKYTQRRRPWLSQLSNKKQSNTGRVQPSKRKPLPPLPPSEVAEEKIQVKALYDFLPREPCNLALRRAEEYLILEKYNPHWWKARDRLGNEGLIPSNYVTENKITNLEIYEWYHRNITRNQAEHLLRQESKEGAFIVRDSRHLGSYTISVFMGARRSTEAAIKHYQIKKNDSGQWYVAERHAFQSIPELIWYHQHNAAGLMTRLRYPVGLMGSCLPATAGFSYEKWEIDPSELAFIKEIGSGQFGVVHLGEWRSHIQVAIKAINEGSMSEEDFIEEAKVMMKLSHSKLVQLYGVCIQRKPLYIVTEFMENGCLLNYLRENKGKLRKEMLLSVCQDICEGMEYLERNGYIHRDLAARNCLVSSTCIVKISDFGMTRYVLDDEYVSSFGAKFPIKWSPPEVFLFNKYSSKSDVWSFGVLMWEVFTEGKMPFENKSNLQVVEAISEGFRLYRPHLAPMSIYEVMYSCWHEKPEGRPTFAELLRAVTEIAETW
Nature of the assay: Txk kinase selectivity assay (Example 142 procedure, Table 3 modifications). To be noted: ATP 100 μM. The method, then: as §1, §2

Another assay concerns the target T4, Itk (Homo sapiens, UniProt Q08881).
T4 construct: purchased Carna Bioscience 08-181
T4 sequence (Q08881 1-620): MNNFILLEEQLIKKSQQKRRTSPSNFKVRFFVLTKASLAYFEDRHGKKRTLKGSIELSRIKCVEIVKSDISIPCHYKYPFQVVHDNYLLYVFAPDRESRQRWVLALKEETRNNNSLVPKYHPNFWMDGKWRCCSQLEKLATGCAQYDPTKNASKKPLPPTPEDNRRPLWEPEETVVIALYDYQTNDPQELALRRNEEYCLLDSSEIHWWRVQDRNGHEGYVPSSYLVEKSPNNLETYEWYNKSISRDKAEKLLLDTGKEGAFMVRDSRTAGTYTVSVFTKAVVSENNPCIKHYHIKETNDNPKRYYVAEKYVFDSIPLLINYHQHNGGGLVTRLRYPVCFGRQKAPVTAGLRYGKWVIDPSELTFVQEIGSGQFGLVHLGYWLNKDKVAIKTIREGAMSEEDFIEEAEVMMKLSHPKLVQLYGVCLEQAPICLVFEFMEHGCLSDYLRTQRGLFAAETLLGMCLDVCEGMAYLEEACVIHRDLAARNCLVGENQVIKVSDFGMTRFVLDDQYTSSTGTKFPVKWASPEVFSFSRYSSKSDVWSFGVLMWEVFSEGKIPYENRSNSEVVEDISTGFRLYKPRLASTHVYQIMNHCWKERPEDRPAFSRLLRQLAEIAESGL
Kind of assay: Itk kinase selectivity assay (Example 142 procedure, Table 3 modifications). To be noted: ATP 10 μM. The method, then:
as §1, §2

For the next assay, the target named is T5, Tec (Homo sapiens, UniProt P42680).
T5 construct: purchased Carna Biosciences 08-182
T5 sequence (P42680 1-631): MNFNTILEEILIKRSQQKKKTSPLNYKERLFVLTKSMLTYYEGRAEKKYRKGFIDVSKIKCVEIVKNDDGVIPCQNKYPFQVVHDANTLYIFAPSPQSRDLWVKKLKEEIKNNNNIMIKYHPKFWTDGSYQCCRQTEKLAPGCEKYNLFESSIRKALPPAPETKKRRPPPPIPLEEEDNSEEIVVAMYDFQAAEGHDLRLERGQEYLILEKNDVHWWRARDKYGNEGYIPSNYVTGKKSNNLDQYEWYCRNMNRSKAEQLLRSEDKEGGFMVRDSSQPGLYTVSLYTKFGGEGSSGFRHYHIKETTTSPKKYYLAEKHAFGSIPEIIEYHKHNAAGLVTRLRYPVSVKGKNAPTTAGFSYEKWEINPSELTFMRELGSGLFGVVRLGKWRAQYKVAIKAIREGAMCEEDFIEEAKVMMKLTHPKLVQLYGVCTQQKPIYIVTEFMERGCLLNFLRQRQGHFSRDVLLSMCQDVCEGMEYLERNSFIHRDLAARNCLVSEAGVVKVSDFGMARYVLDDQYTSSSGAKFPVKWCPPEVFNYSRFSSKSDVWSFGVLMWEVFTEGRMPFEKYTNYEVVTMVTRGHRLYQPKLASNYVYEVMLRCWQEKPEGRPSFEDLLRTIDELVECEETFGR
Kind of assay: In vitro Tec kinase selectivity assay (Tec-POLYGT-LS). To be noted: ATP 25 μM. How it is done: In Vitro Tec Kinase Selectivity Assay
as §1

T2 sequence (Q06187 whole entry): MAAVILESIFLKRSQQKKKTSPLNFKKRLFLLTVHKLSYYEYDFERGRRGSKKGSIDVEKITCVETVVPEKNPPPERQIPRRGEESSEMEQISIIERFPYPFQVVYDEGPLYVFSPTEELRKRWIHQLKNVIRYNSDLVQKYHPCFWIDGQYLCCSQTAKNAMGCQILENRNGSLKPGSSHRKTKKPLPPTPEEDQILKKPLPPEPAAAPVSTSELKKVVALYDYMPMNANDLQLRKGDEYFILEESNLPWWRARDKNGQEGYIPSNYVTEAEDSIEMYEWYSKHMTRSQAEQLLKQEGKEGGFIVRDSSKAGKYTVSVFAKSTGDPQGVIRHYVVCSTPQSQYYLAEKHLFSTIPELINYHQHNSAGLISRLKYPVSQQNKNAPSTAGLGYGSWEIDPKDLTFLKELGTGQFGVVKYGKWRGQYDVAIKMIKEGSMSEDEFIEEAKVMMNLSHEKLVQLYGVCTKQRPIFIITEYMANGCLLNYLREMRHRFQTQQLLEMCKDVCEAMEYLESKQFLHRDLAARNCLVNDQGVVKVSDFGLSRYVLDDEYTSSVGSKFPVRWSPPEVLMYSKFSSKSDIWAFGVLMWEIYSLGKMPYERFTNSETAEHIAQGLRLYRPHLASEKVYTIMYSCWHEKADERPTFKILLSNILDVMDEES
T1 sequence (P06239 whole entry): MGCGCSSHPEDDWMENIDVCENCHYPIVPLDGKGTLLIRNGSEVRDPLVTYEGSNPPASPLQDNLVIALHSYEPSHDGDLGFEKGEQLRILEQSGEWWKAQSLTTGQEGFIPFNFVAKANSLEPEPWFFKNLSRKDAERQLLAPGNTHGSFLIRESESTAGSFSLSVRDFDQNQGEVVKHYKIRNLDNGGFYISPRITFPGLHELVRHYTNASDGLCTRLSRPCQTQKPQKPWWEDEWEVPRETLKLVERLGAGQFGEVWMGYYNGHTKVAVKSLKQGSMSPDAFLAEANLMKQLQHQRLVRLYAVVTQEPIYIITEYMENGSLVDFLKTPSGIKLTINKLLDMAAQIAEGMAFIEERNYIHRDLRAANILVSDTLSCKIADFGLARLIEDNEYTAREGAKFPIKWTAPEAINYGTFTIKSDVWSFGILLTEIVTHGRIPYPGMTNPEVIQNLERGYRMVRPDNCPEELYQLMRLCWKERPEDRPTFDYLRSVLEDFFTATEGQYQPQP

Turning to `O=C(CNc1cc(Cl)cc(Cl)c1)N1CCC2CCN(c3ncnc4[nH]ncc34)C2C1` (stereo not shown) [Compound 192], the IC50 is 100 to 999 nM against Lck; less than 100 nM against BTK; 1000 to 10000 nM on Txk; 100 to 999 nM at Itk; 100 to 999 nM against Tec.
`CC[C@@H](Nc1cc(Cl)cc(Cl)c1)C(=O)N1CCC2CCN(c3ncnc4[nH]ccc34)C2C1` (stereo partly shown) [Compound 99]: the half-maximal inhibitory concentration (IC50) against Lck is 100 to 999 nM; against BTK, less than 100 nM; on Txk, 1000 to 10000 nM; against Itk, 100 to 999 nM; at Tec it was 100 to 999 nM.

What is called IC50 is the concentration that gives 50% inhibition.

The values are drawn from patent publication US9273028B2, “Heterocyclic tyrosine kinase inhibitors” (Biogen MA Inc., priority 2010, dated 2016).
